Reference: patent US20210145811A1, “TREATMENT OF CANCER WITH EXON 14 SKIPPING MUTATION(S) OR EXON 14 SKIPPING PHENOTYPE” (Eli Lilly and Company, priority 2016, published 2021)

Columns and labels:
phospho-MET (Y1234/1235) [1] = biological target: T1, phospho-MET (Y1234/1235) (Homo sapiens, UniProt P08581, DEL964-1010); test: Western blotting of phospho-MET in Hs746t cells; format: cell-based; details: Hs746t cells (MET exon 14 skipping), 2 hours incubation, Western blot
T1 construct: Western blots performed on lysates from in vitro cultured cells confirm a strong band corresponding to MET protein; host or cells: Hs746t
Procedure: (§1) Hs746t cells are obtained from ATCC® (Manassas, Va.) and are maintained in DMEM Medium with L-glutamine and 10% fetal bovine serum (FBS). MKN45 cells, expressing wild-type MET, are obtained from JCRB Cell Bank (Japan) and are maintained in RPMI 1640 Medium with L-glutamine, 10% FBS, and sodium pyruvate. Cells are grown at 37° C. with 5% CO2. Cells are seeded into 6-well plates, 1 million cells/well, and incubated overnight. Cells are incubated with merestinib for 2 hours, then are lysed in radioimmunoprecipitation assay (RIPA) buffer containing protease inhibitors. Protein concentrations of cell lysates are measured with the DC™ Protein Assay (BioRad), following manufacturer directions. Lysates are electrophoresed on Novex® 4-20% Tris Glycine gels (Invitrogen), and are transferred onto polyvinylidene difluoride (PVDF) membranes. The blots are probed for total MET (clone D1C2, CELL SIGNALING TECHNOLOGY®, Cat #8198), phospho-MET (Y1234/1235, clone D26, CELL SIGNALING TECHNOLOGY®, Cat #3077), and phospho-MET (Y1003, clone 13D11, CELL SIGNALING TECHNOLOGY®, Cat #3135). Monoclonal Anti-β-Actin (clone AC-15, SIGMA-ALDRICH®, Cat #A5441) is used as a loading control. After incubating with horseradish peroxidase (HRP)-linked secondary antibodies, blots are developed with chemiluminescent substrate and imaged on a Lumi-Imager (Roche).

phospho-MET (Y1234/1235) [2] = biological target: T2, phospho-MET (Y1234/1235) (Homo sapiens, UniProt P08581); test: Western blotting of phospho-MET in MKN45 cells; format: cell-based; details: MKN45 cells (wild-type MET), 2 hours incubation, Western blot
T2 construct: MKN45 cells, expressing wild-type MET; host or cells: MKN45
Procedure: as §1

Hs746t cells = test: Cell proliferation assay (CELL TITER-GLO); format: cell-based; details: Homo sapiens, 120 h, 5 days exposure, n=2, read-out: IC50 in vitro Hs746t cell proliferation
Procedure: Hs746t cells are seeded onto poly-D-lysine, 96-well plates, 3000 cells/well and allowed to attach overnight in a 37° C. with 5% CO2 incubator. Merestinib is serially diluted 1:3 and added to the cells in triplicate. After 120 hours, cell viability is measured with the CELL TITER-GLO® Luminescent Cell Viability Assay (Promega), following manufacturer directions. The data are analyzed with GraphPad Prism v6 software. The assay is performed in duplicate experiments.

Hs746t-derived xenograft = test: In vivo Hs746t xenograft model; parameters: species or system mouse
Procedure: (§2) Female athymic nude mice (Envigo) are used for this study. Food and water are available ad libitum. Animals are acclimated for 1 week prior to any experimental manipulation. The study is performed in accordance with AAALAC accredited institutional guidelines.
Merestinib is formulated as a solution in 10% PEG 400/90% (20% Captisol in water). Solution is freshly prepared every 7 days.
Hs746t cells are expanded in culture, harvested, and washed in Hank's Balanced Salt Solution (HBSS, GIBCO®). Approximately 5×10^6 cells in HBSS are implanted subcutaneously into the hind flank of the animal. When tumors reach an average size of 150 to 200 mm^3, the animals are randomized into groups of 7. […]
Animals are sacrificed using CO2 and cervical dislocation when tumors grew larger than 2000 mm^3.
(§3) Tumor volumes and body weight are measured bi-weekly. Statistical analysis is performed when 3 of the 7 vehicle treated animals hed been removed from the study due to tumor burden. Tumor volume is transformed to the log scale to equalize variance across time and treatment groups. The log volume data are analyzed with a two-way repeated measures analysis of variance by time and treatment using the MIXED procedures in SAS software (Version 9.3). The correlation model for the repeated measures is spatial power. Treated groups are compared to the control group at each time point. The MIXED procedure is also used separately for each treatment group to calculate adjusted means and standard errors at each time point. Both analyses account for the autocorrelation within each animal and the loss of data that occurs when animals are removed or lost before the end of the study. The adjusted means and standard errors are plotted for each treatment group versus time.
Measure tumor growth with calipers. Calculate tumor volumes by the formula Volume (mm^3)=L×W^2 (π/6) where L represents the larger diameter and W the smaller diameter. Calculate T/C % using the formula T/C %=100×ΔT/ΔC. Where ΔT=mean tumor volume of the drug-treated group on the final day of the study−mean tumor volume of the drug-treated group on the initial day of the dosing and ΔC=mean tumor volume of the control group on the final day of the study−mean tumor volume of the control group on the initial day of the dosing. Calculate changes in body weight by the formula (Weight on observation day−Weight on day 12)/Weight on Day 12×100.

[3] = Body weight and health in Hs746t xenograft study; format: in vivo, mouse; details: groups treated with merestinib (6 or 12 mg/kg)
Procedure: as §2
Hs746t cells are expanded in culture, harvested, and washed in Hank's Balanced Salt Solution (HBSS, GIBCO®). Approximately 5×10^6 cells in HBSS are implanted subcutaneously into the hind flank of the animal. When tumors reach an average size of 150 to 200 mm^3, the animals are randomized into groups of 7. Merestinib is prepared and administered via oral gavage at 6 or 12 mg/kg doses on a once daily schedule for 21 days.
as §3, with “Both analyses account for the autocorrelation within each animal and the loss of data that occurs when animals are removed or lost before the end of the study. The adjusted means and standard errors are plotted for each treatment group versus time.” left out

Cc1ccc(C(=O)Nc2ccc(Oc3cc4cnn(C)c4cc3-c3cn[nH]c3)c(F)c2)c(=O)n1-c1ccc(F)cc1 [merestinib, N-(3-Fluoro-4-(1-methyl-6-(1H-pyrazol-4-yl)-1H-indazol-5-yloxy)phenyl)-1-(4-fluorophenyl)-6-methyl-2-oxo-1,2-dihydropyridine-3-carboxamide]
phosphorylated MET at the Y1234/1235 position (phospho-MET (Y1234/1235) [1]): inhibited
phosphorylated MET at the Y1234/1235 position (phospho-MET (Y1234/1235) [2]): inhibited
IC50 (Hs746t cells): 0.0334 µM
tumors showing signs of regrowth (2 consecutively larger tumor volume measurements) (Hs746t-derived xenograft; 6 mg/kg oral gavage once daily, end of study): 5 of the 7
anti-tumor activity T/C (Hs746t-derived xenograft; 6 mg/kg oral gavage once daily, end of study, p=0.033 vs vehicle): 18.3%
tumor regression (Hs746t-derived xenograft; 12 mg/kg oral gavage once daily, to the end of the study): 91.8%
tumor re-growth after treatment is terminated (Hs746t-derived xenograft; 12 mg/kg, 5 weeks after treatment terminated): no tumor re-growth was observed
animals that are complete responders (Hs746t-derived xenograft; 12 mg/kg, 64 days of dosing): 6 of the 7
tumor re-growth during treatment (treatment resistance) (Hs746t-derived xenograft; 12 mg/kg, within 2 months of treatment): No tumor re-growth is observed
health issues in the animals [3]: no noticeable health issues
